Results reported in PubChem BioAssay (NCI).
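A five-concentration, 48-hour dose response in 96-well plates underlies each endpoint, interpolated linearly between surrounding concentrations. Here, GI50 denotes the concentration required for 50% inhibition of growth. TGI: concentration producing complete growth inhibition.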

Experiments:
Assay in all cases: inhibition of tumour cell growth, NCI panel, 48 h
SF-295 CNS = tested on: SF-295 CNS
PC-3 prostate = tested on: PC-3 prostate
SF-539 CNS = tested on: SF-539 CNS
ACHN renal = tested on: ACHN renal
HCC-2998 colon = tested on: HCC-2998 colon
HCT-116 colon = tested on: HCT-116 colon
MOLT-4 leukemia = tested on: MOLT-4 leukemia
COLO 205 colon = tested on: COLO 205 colon
SNB-19 CNS = tested on: SNB-19 CNS
OVCAR-5 ovarian = tested on: OVCAR-5 ovarian
OVCAR-3 ovarian = tested on: OVCAR-3 ovarian
SK-OV-3 ovarian = tested on: SK-OV-3 ovarian
UACC-62 melanoma = tested on: UACC-62 melanoma
LOX IMVI melanoma = tested on: LOX IMVI melanoma
SF-268 CNS = tested on: SF-268 CNS
HL-60(TB) leukemia = tested on: HL-60(TB) leukemia
HOP-92 NSCLC = tested on: HOP-92 NSCLC
TK-10 renal = tested on: TK-10 renal
M14 melanoma = tested on: M14 melanoma
KM12 colon = tested on: KM12 colon
MDA-MB-231 breast = tested on: MDA-MB-231 breast
786-0 renal = tested on: 786-0 renal
IGROV1 ovarian = tested on: IGROV1 ovarian
SN12C renal = tested on: SN12C renal
OVCAR-8 ovarian = tested on: OVCAR-8 ovarian
OVCAR-4 ovarian = tested on: OVCAR-4 ovarian
HT29 colon = tested on: HT29 colon
SW-620 colon = tested on: SW-620 colon
SR leukemia = tested on: SR leukemia
HS 578T breast = tested on: HS 578T breast
DU-145 prostate = tested on: DU-145 prostate
SNB-75 CNS = tested on: SNB-75 CNS
T-47D breast = tested on: T-47D breast
RPMI-8226 leukemia = tested on: RPMI-8226 leukemia
NCI-H522 lung = tested on: NCI-H522 lung
K-562 leukemia = tested on: K-562 leukemia
NCI-H226 lung = tested on: NCI-H226 lung
UO-31 renal = tested on: UO-31 renal
MCF7 breast = tested on: MCF7 breast
SK-MEL-5 melanoma = tested on: SK-MEL-5 melanoma
HOP-62 NSCLC = tested on: HOP-62 NSCLC
MALME-3M melanoma = tested on: MALME-3M melanoma
SK-MEL-28 melanoma = tested on: SK-MEL-28 melanoma
EKVX NSCLC = tested on: EKVX NSCLC
A549 NSCLC = tested on: A549 NSCLC
HCT-15 colon = tested on: HCT-15 colon
UACC-257 melanoma = tested on: UACC-257 melanoma
U251 CNS = tested on: U251 CNS
CAKI-1 renal = tested on: CAKI-1 renal
BT-549 breast = tested on: BT-549 breast
A498 renal = tested on: A498 renal
SK-MEL-2 melanoma = tested on: SK-MEL-2 melanoma
MDA-MB-435 = tested on: MDA-MB-435
RXF 393 renal = tested on: RXF 393 renal
NCI/ADR-RES ovarian = tested on: NCI/ADR-RES ovarian

Cc1cc(S(=O)(=O)/N=C(\N)Nc2cccc(O)c2)c(SCc2ccccc2)cc1Cl
GI50 (SF-295 CNS): 16.7 µM
TGI (SF-295 CNS): 51.2 µM
GI50 (PC-3 prostate): 12.1 µM
TGI (PC-3 prostate): > 100 µM
GI50 (SF-539 CNS): 18 µM
TGI (SF-539 CNS): 38.8 µM
GI50 (ACHN renal): 18.2 µM
TGI (ACHN renal): 39.4 µM
GI50 (HCC-2998 colon): 32.6 µM
TGI (HCC-2998 colon): 65.1 µM
GI50 (HCT-116 colon): 12.6 µM
TGI (HCT-116 colon): 34 µM
GI50 (MOLT-4 leukemia): 9.06 µM
TGI (MOLT-4 leukemia): > 100 µM
GI50 (COLO 205 colon): 28.8 µM
TGI (COLO 205 colon): > 100 µM
GI50 (SNB-19 CNS): 20.6 µM
TGI (SNB-19 CNS): 58.9 µM
GI50 (OVCAR-5 ovarian): 23.4 µM
TGI (OVCAR-5 ovarian): 53 µM
GI50 (OVCAR-3 ovarian): 10.3 µM
TGI (OVCAR-3 ovarian): 26.2 µM
GI50 (SK-OV-3 ovarian): 19.1 µM
TGI (SK-OV-3 ovarian): 37.9 µM
GI50 (UACC-62 melanoma): 14.1 µM
TGI (UACC-62 melanoma): 30.2 µM
GI50 (LOX IMVI melanoma): 20.5 µM
TGI (LOX IMVI melanoma): 66.8 µM
GI50 (SF-268 CNS): 17.4 µM
TGI (SF-268 CNS): 69 µM
GI50 (HL-60(TB) leukemia): 12.9 µM
TGI (HL-60(TB) leukemia): 62.9 µM
GI50 (HOP-92 NSCLC): 9.89 µM
TGI (HOP-92 NSCLC): 36.3 µM
GI50 (TK-10 renal): 21.2 µM
TGI (TK-10 renal): 49.5 µM
GI50 (M14 melanoma): 11.1 µM
TGI (M14 melanoma): 26.7 µM
GI50 (KM12 colon): 15.6 µM
TGI (KM12 colon): 54.4 µM
GI50 (MDA-MB-231 breast): 16.8 µM
TGI (MDA-MB-231 breast): 41.2 µM
GI50 (786-0 renal): 16.9 µM
TGI (786-0 renal): 33.5 µM
GI50 (IGROV1 ovarian): 17.5 µM
TGI (IGROV1 ovarian): 64.8 µM
GI50 (SN12C renal): 17.6 µM
TGI (SN12C renal): 38.2 µM
GI50 (OVCAR-8 ovarian): 24.3 µM
TGI (OVCAR-8 ovarian): 87.1 µM
GI50 (OVCAR-4 ovarian): 12.1 µM
TGI (OVCAR-4 ovarian): 45.1 µM
GI50 (HT29 colon): 20.6 µM
TGI (HT29 colon): 43.9 µM
GI50 (SW-620 colon): 29.3 µM
TGI (SW-620 colon): > 100 µM
GI50 (SR leukemia): 16.2 µM
TGI (SR leukemia): > 100 µM
GI50 (HS 578T breast): 24.4 µM
TGI (HS 578T breast): 82.9 µM
GI50 (DU-145 prostate): 24.4 µM
TGI (DU-145 prostate): 81.8 µM
GI50 (SNB-75 CNS): 10.8 µM
TGI (SNB-75 CNS): 26.5 µM
GI50 (T-47D breast): 19.4 µM
TGI (T-47D breast): 75.7 µM
GI50 (RPMI-8226 leukemia): 5.81 µM
TGI (RPMI-8226 leukemia): > 100 µM
GI50 (NCI-H522 lung): 13.9 µM
TGI (NCI-H522 lung): 41.8 µM
GI50 (K-562 leukemia): 8.28 µM
TGI (K-562 leukemia): > 100 µM
GI50 (NCI-H226 lung): 24 µM
TGI (NCI-H226 lung): 62.3 µM
GI50 (UO-31 renal): 10.8 µM
TGI (UO-31 renal): 27.6 µM
GI50 (MCF7 breast): 11.5 µM
TGI (MCF7 breast): 78.9 µM
GI50 (SK-MEL-5 melanoma): 12.1 µM
TGI (SK-MEL-5 melanoma): 29.6 µM
GI50 (HOP-62 NSCLC): 15.1 µM
TGI (HOP-62 NSCLC): 31.7 µM
GI50 (MALME-3M melanoma): 27.9 µM
TGI (MALME-3M melanoma): 63.9 µM
GI50 (SK-MEL-28 melanoma): 14.1 µM
TGI (SK-MEL-28 melanoma): 31 µM
GI50 (EKVX NSCLC): 12.7 µM
TGI (EKVX NSCLC): 37.2 µM
GI50 (A549 NSCLC): 14.8 µM
TGI (A549 NSCLC): > 100 µM
GI50 (HCT-15 colon): 18.6 µM
TGI (HCT-15 colon): 48 µM
GI50 (UACC-257 melanoma): 17.7 µM
TGI (UACC-257 melanoma): 35.1 µM
GI50 (U251 CNS): 18.9 µM
TGI (U251 CNS): 48.6 µM
GI50 (CAKI-1 renal): 16 µM
TGI (CAKI-1 renal): 34.2 µM
GI50 (BT-549 breast): 19 µM
TGI (BT-549 breast): 39.7 µM
GI50 (A498 renal): 17.8 µM
TGI (A498 renal): 35.7 µM
GI50 (SK-MEL-2 melanoma): 15.7 µM
TGI (SK-MEL-2 melanoma): 34.9 µM
GI50 (MDA-MB-435): 14.2 µM
TGI (MDA-MB-435): 32.5 µM
GI50 (RXF 393 renal): 16.2 µM
TGI (RXF 393 renal): 39.9 µM
GI50 (NCI/ADR-RES ovarian): 26.5 µM
TGI (NCI/ADR-RES ovarian): 70.2 µM
